# Reference: US10172787B2, “Method of regulating a condition of mammalian keratinous tissue” (priority 2015, dated 2019)
# System: interleukin-18 (IL-18)
# Test: Skin sensitization potential: IL-18 production in HEK
# Type: cell-based, human
# Conditions: 16 hours
# Description: It is possible for a material to not be cytotoxic, and yet be unsafe due to provoking an allergic reaction upon skin contact. Typically, initial exposure to an allergen sensitizes the immune system, and following exposures cause an allergic response. […] Thus, IL-18 production in HEK was evaluated to determine sensitization potential.
# Normal human adult epidermal keratinocytes (HEK) were cultured as described above for the cytoxicity evaluation. […] The cell lysates were collected, and IL-18 was quantified using Human IL-18 ELISA Kit (Catalog #7620, produced by MBL International Co., Woburn, Mass., USA). […] Fold changes of IL-18 levels between test articles and respective vehicle controls were calculated and compared to pPD (positive control). […]
structure (smiles),measurement,value
"Nc1ccc(N)cc1 [benchmark sensitizer, para-phenylenediamine]",IL18 Maximum fold (vs vehicle control),7.8 fold)
